A word on the pIC50: it is the negative decadic logarithm of the IC50, by convention in mol/L. A lower pIC50 goes with a high IC50.

For the test, the target named is ROCK2 (Homo sapiens (Human), UniProt O75116). Briefly: biochemical.

pIC50: −log10 of the molar value. Structures can show the parent of a compound that is named as a salt. Where only a bound is given, the exact number is not on record here.
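Note: rho kinase enzyme reaction halted with EDTA, phospho- and non-phospho peptide separated for read-out, kinase activity inhibition derived across a dose-response series, DMSO under 2%.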

ROCK2, sequence (O75116 whole entry, species assumed): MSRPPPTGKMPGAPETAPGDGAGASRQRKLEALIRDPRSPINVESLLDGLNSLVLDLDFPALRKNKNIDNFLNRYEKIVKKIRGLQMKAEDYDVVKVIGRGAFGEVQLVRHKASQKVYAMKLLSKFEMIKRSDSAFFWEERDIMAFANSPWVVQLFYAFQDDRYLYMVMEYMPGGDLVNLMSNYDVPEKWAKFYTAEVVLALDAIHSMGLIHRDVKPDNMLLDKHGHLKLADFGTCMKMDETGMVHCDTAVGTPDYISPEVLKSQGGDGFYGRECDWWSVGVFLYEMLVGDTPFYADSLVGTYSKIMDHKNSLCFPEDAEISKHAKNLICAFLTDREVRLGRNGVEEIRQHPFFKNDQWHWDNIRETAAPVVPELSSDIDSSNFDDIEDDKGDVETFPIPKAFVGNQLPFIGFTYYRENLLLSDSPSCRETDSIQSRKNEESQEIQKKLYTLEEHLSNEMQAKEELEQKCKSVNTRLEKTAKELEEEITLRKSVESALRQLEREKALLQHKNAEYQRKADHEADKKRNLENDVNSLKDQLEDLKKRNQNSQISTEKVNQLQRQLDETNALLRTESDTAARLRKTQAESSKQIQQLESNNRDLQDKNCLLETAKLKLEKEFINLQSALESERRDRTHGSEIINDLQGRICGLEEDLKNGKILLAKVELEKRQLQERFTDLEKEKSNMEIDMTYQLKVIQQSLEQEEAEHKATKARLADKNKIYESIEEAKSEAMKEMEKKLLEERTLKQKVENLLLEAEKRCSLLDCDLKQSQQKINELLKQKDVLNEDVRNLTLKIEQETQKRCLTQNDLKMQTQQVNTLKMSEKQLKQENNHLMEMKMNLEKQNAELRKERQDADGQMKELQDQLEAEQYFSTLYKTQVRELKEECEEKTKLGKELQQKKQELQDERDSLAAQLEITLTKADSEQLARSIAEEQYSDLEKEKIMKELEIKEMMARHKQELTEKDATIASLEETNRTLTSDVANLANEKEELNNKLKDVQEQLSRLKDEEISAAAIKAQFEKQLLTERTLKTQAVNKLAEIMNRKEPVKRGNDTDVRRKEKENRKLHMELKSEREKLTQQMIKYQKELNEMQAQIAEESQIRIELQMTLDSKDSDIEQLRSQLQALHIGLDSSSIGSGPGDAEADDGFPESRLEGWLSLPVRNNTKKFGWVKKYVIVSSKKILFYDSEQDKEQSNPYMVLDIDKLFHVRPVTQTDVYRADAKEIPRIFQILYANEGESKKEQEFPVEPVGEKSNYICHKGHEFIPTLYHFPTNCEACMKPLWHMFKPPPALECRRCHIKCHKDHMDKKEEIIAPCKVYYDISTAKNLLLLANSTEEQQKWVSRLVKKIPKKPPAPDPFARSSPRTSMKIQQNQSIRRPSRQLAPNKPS

`COc1ccc(NC2CCN(c3ccc(-c4cn[nH]c4)cc3)C2=O)c(F)c1` (single isomer, unassigned) [Example 19, 1-(4-(1H-pyrazol-4-yl)phenyl)-3-((2-fluoro-4-methoxyphenyl)amino)pyrrolidin-2-one] had a pIC50 of 5.66 to 7.00.

Molecule `COc1cc(F)cc(NC2CCN(c3ccc(-c4cn[nH]c4)c(C(F)F)c3)C2=O)c1` (single isomer, unassigned) [Example 177, 1-(3-(difluoromethyl)-4-(1H-pyrazol-4-yl)phenyl)-3-((3-fluoro-5-methoxyphenyl)amino)pyrrolidin-2-one] had a pIC50 of 5.66 to 7.00.

`COc1c(F)cccc1NC1CCN(c2ccc(-c3cn[nH]c3)cn2)C1=O` (single isomer, unassigned) [Example 90, 1-(5-(1H-pyrazol-4-yl)pyridin-2-yl)-3-((3-fluoro-2-methoxyphenyl)amino)pyrrolidin-2-one] gave a negative logarithm of the IC50 (pIC50) of 5.66 to 7.00.

The molecule `Cc1nc(N2CCC(Nc3cccc(OCC4CC4)c3)C2=O)ccc1-c1cn[nH]c1` (single isomer, unassigned) [Example 190, 3-((3-(cyclopropylmethoxy)phenyl)amino)-1-(6-methyl-5-(1H-pyrazol-4-yl)pyridin-2-yl)pyrrolidin-2-one] had a pIC50 of 7.00 to 8.00.

The molecule `COc1cccc(NC2CCN(c3ccc(-c4cn[nH]c4)c(Cl)c3)C2=O)c1` (single isomer, unassigned) [Example 165, 1-(3-chloro-4-(1H-pyrazo1-4-yl)phenyl)-3 ((3-methoxyphenyl)amino)pyrrolidin-2-one] had a pIC50 of 7.00 to 8.00.

In the case of `COc1cc(F)cc(NC2CCN(c3ccc(-c4cn[nH]c4)c(F)c3F)C2=O)c1` (single isomer, unassigned) [Example 310, 1-(2,3-difluoro-4-(1H-pyrazol-4-yl)phenyl)-3-((3-fluoro-5-methoxyphenyl)amino)pyrrolidin-2-one], the pIC50 is > 8.00.

As to `COc1cc(F)cc(NC2CCN(c3ccc(-c4cn[nH]c4)nc3)C2=O)c1` (single isomer, unassigned) [Example 302, 1-(6-(1H-pyrazol-4-yl)pyridin-3-yl)-3-((3-fluoro-5-methoxyphenyl)amino)pyrrolidin-2-one], the pIC50 was > 8.00.

On to `COc1cccc(NC2CCN(c3ccc(-c4cn[nH]c4)c(F)c3F)C2=O)c1` (single isomer, unassigned) [Example 305, 1-(2,3-difluoro-4-(1H-pyrazol-4-yl)phenyl)-3-((3-methoxyphenyl)amino) pyrrolidin-2-one], for which the pIC50 was 7.00 to 8.00.

Consider `COc1cccc(NC2CCN(c3ncc(-c4cn[nH]c4)cc3F)C2=O)c1` (single isomer, unassigned) [Example 357, 1-(3-fluoro-5-(1H-pyrazol-4-yl)pyridin-2-yl)-3-((3-methoxyphenyl)amino) pyrrolidin-2-one], for which the pIC50 was 5.66 to 7.00.

The molecule `O=C1C(Cc2ccc(F)cc2)CCN1c1ccc(-c2cn[nH]c2)cc1` (stereo not shown) [Example 98, 1-(4-(1H-pyrazol-4-yl)phenyl)-3-(4-fluorobenzyl)pyrrolidin-2-one] gave a negative logarithm of the IC50 (pIC50) of 5.66 to 7.00.

On to `COc1cccc(NC2CCN(c3ccc(-c4cn[nH]c4)nc3)C2=O)c1` (single isomer, unassigned) [Example 297, 1-(6-(1H-pyrazol-4-yl)pyridin-3-yl)-3-((3-methoxyphenyl)amino)pyrrolidin-2-one], for which the pIC50 is 7.00 to 8.00.

`COc1c(F)cccc1NC1CCN(c2ccc(-c3cn[nH]c3)c(OC(F)F)c2)C1=O` (single isomer, unassigned) [Example 32, 1-(3-(difluoromethoxy)-4-(1H-pyrazol-4-yl)phenyl)-3-((3-fluoro-2-methoxyphenyl)amino)pyrrolidin-2-one] gave a pIC50 of 5.66 to 7.00.

Consider `COc1c(F)cccc1NC1CCN(c2ccc(-c3cn[nH]c3)c(F)c2)C1=O` (single isomer, unassigned) [Example 337, 3-((3-fluoro-2-methoxyphenyl)amino)-1-(3-fluoro-4-(1H-pyrazol-4-yl)phenyl) pyrrolidin-2-one], for which the negative logarithm of the IC50 (pIC50) is 5.66 to 7.00.

Consider `CCc1cc(N2CCC(Nc3cccc(OC)c3)C2=O)ccc1-c1cn[nH]c1` (single isomer, unassigned) [Example 244, 1-(3-ethyl-4-(1H-pyrazol-4-yl)phenyl)-3-((3-methoxyphenyl)amino)pyrrolidin-2-one], for which the pIC50 is > 8.00.

The molecule `O=C1C(CCc2ccccc2Cl)CCN1c1ccc(-c2cn[nH]c2)cc1` (stereo not shown) [Example 100, 1-(4-(1H-pyrazol-4-yl)phenyl)-3-(2-chlorophenethyl)pyrrolidin-2-one] gave a pIC50 of 5.66 to 7.00.

Take `O=C1C(Cc2ccccc2F)CCN1c1ccc(-c2cn[nH]c2)cc1` (stereo not shown) [Example 96, 1-(4-(1H-pyrazol-4-yl)phenyl)-3-(2-fluorobenzyl)pyrrolidin-2-one]: the pIC50 is 7.00 to 8.00.

As to `COc1nc(N2CCC(N3CCc4cccnc43)C2=O)ccc1-c1cn[nH]c1` (racemic) [Example 281, 3-(2,3-dihydro-1H-pyrrolo[2,3-b]pyridin-1-yl)-1-(6-methoxy-5-(1H-pyrazol-4-yl)pyridin-2-yl)pyrrolidin-2-one], the pIC50 is 7.00 to 8.00.

On to `COCc1cc(N2CCC(Nc3cc(F)cc(OC)c3)C2=O)ccc1-c1cn[nH]c1` (single isomer, unassigned) [Example 186, 3-((3-fluoro-5-methoxyphenyl)amino)-1-(3-(methoxymethyl)-4-(1H-pyrazol-4-yl)phenyl)pyrrolidin-2-one], for which the negative logarithm of the IC50 (pIC50) is 7.00 to 8.00.

Turning to `N#Cc1cccc(CC2CCN(c3ccc(-c4cn[nH]c4)cc3)C2=O)c1` (stereo not shown) [Example 97, 3-((1-(4-(1H-pyrazol-4-yl)phenyl)-2-oxopyrrolidin-3-yl)methyl)benzonitrile], the pIC50 was 5.66 to 7.00.

Molecule `COCc1cc(N2CCC(Nc3cccc(OC)c3)C2=O)ccc1-c1cn[nH]c1` (single isomer, unassigned) [Example 184, 1-(3-(methoxymethyl)-4-(1H-pyrazol-4-yl)phenyl)-3-((3-methoxyphenyl)amino) pyrrolidin-2-one] gave a negative-log IC50 (pIC50) of 7.00 to 8.00.

Regarding `COc1ccc(F)c(NC2CCN(c3ccc(-c4cn[nH]c4)cc3F)C2=O)c1` (single isomer, unassigned) [Example 341, 1-(2-fluoro-4-(1H-pyrazol-4-yl)phenyl)-3-((2-fluoro-5-methoxyphenyl)amino) pyrrolidin-2-one], the negative logarithm of the IC50 (pIC50) is 7.00 to 8.00.

In turn, `COc1cc(F)cc(NC2CCN(c3ccc(-c4cn[nH]c4)nc3)C2=O)c1` (single isomer, unassigned) [Example 301, 1-(6-(1H-pyrazol-4-yl)pyridin-3-yl)-3-((3-fluoro-5-methoxyphenyl)amino)pyrrolidin-2-one] showed a pIC50 of 7.00 to 8.00.

For `COc1nc(N2CCC(Nc3ccc(F)c(OCC4CC4)c3)C2=O)ccc1-c1cn[nH]c1` (single isomer, unassigned) [Example 216, 3-((3-(cyclopropylmethoxy)-4-fluorophenyl)amino)-1-(6-methoxy-5-(1H-pyrazol-4-yl)pyridin-2-yl)pyrrolidin-2-one], the pIC50 was > 8.00.

Turning to `O=C1C(Nc2cccc(F)c2)CCN1c1ccc(-c2cn[nH]c2)c(F)c1` (single isomer, unassigned) [Example 48, 1-(3-fluoro-4-(1H-pyrazol-4-yl)phenyl)-3-((3-fluorophenyl)amino)pyrrolidin-2-one], the pIC50 is 7.00 to 8.00.

`COc1cccc(NC2CCN(c3ccc(-c4ccnc(F)c4)c(OC)n3)C2=O)c1` (racemic) [Example 127, 1-(2′-fluoro-2-methoxy-[3,4′-bipyridin]-6-yl)-3-((3-methoxyphenyl)amino)pyrrolidin-2-one] gave a pIC50 of 7.00 to 8.00.

`COc1cc(F)cc(NC2CCN(c3ccc(-c4cn[nH]c4)c(F)c3F)C2=O)c1` (single isomer, unassigned) [Example 309, 1-(2,3-difluoro-4-(1H-pyrazol-4-yl)phenyl)-3-((3-fluoro-5-methoxyphenyl)amino)pyrrolidin-2-one] showed a pIC50 of 7.00 to 8.00.

Regarding `COc1nc(N2CCC(Nc3cc(C)nn3C)C2=O)ccc1-c1cn[nH]c1` (racemic) [Example 270, 3-((1,3-dimethyl-1H-pyrazol-5-yl)amino)-1-(6-methoxy-5-(1H-pyrazol-4-yl)pyridin-2-yl)pyrrolidin-2-one], the negative-log IC50 (pIC50) was 7.00 to 8.00.

`COc1cc(F)cc(NC2CCN(c3ccc(-c4cn[nH]c4)c(C(F)F)c3)C2=O)c1` (single isomer, unassigned) [Example 178, 1-(3-(difluoromethyl)-4-(1H-pyrazol-4-yl)phenyl)-3-((3-fluoro-5-methoxyphenyl)amino)pyrrolidin-2-one]: the negative logarithm of the IC50 (pIC50) was 7.00 to 8.00.

For the molecule `COc1cc(F)cc(NC2CCN(c3ccc(-c4cn[nH]c4)cn3)C2=O)c1` (single isomer, unassigned) [Example 88, 1-(5-(1H-pyrazol-4-yl)pyridin-2-yl)-3-((3-fluoro-5-methoxyphenyl)amino)pyrrolidin-2-one], the negative logarithm of the IC50 (pIC50) was > 8.00.

In turn, `COc1cc(NC2CCN(c3ccc(-c4cn[nH]c4)c(C)c3)C2=O)cc(OC)c1` (single isomer, unassigned) [Example 366, 3-((3,5-dimethoxyphenyl)amino)-1-(3-methyl-4-(1H-pyrazol-4-yl)phenyl) pyrrolidin-2-one] showed a pIC50 of 5.66 to 7.00.

Molecule `COc1cccc([C@@H](C)NC2CCN(c3ccc(-c4cn[nH]c4)cc3)C2=O)c1` (stereo partly drawn) [Example 60, 1-(4-(1H-pyrazol-4-yl)phenyl)-3-(((R)-1-(3-methoxyphenyl)ethyl)amino)pyrrolidin-2-one, TFA] had a pIC50 of 5.66 to 7.00.

Molecule `COc1cc(NC2CCN(c3ccc(-c4cn[nH]c4)c(OC(F)F)c3)C2=O)ccc1F` (single isomer, unassigned) [Example 106, 1-[3-(difluoromethoxy)-4-(1H-pyrazol-4-yl)phenyl]-3-[(4-fluoro-3-methoxyphenyl)amino]pyrrolidin-2-one] had a pIC50 of 7.00 to 8.00.

For the molecule `NC(=O)c1cccc(NC2CCN(c3ccc(-c4cn[nH]c4)cc3)C2=O)c1` (stereo not shown) [Example 388, 3-((1-(4-(1H-pyrazol-4-yl)phenyl)-2-oxopyrrolidin-3-yl)amino)benzamide], the pIC50 was > 8.00.

For the molecule `O=C1C(Nc2cccc(OC(F)F)c2)CCN1c1ccc(-c2cn[nH]c2)cn1` (single isomer, unassigned) [Example 322, 1-(5-(1H-pyrazol-4-yl)pyridin-2-yl)-3-((3-(difluoromethoxy)phenyl)amino) pyrrolidin-2-one], the pIC50 is 7.00 to 8.00.

(Values after patent US10112929B2, “Lactams as inhibitors of rock” (BRISTOL-MYERS SQUIBB COMPANY, priority 2015, dated 2018).)
